Experimental data from patent US20220259172A1, “CHEMICAL INHIBITORS OF ID PROTEINS FOR THE TREATMENT OF CANCER AND OTHER DISEASES” (Universität Heidelberg, priority 2019, published 2022).
Entries after “also recorded” stand apart in the source; their conditions may differ.

Tests used:
[1] = test system: Id1; experiment: Compound screen: BMP4-induced Id1 expression, Western blot; assay type: cell-based, murine; conditions: B16-F10 and Ret cells, BMP4 10 ng/ml and compound simultaneously, 24 h, rated relative to CBD
Procedure: To screen compounds with an inhibitory effect on Id1 and Id3 expression, cells were simultaneously stimulated with BMP4 (10 ng/ml, 315-27, Peprotech) and substances at the indicated concentrations for 24 h. DMSO served as a solvent control. Effects on Id1 and Id3 expression levels were analysed by Western blotting.
(§1) Western blot analysis was performed using standard methods. The following antibodies were used for protein detection: Id1 (195-14, CalBioreagents), Id3 (17-3, CalBioreagents), β-actin (AC-15, Sigma Aldrich), Vinculin (VIN-11-5, Sigma Aldrich). Protein bands were detected using HRP conjugated secondary antibodies (P0447, P0448, Agilent Technologies) and enhanced chemiluminescence (32106, Thermo Fisher Scientific).
B16-F10 and Ret melanoma cells were treated with BMP4 to induce Id1 and Id3 expression, and simultaneously treated with each of the compounds individually for a 24 h period.

[2] = test system: B16-F10 and Ret cells; experiment: Proliferation of melanoma cells in 2D culture; assay type: cell-based, murine
[3] = test system: mouse embryonic fibroblasts (MEFs); experiment: Proliferation/cytotoxicity in mouse embryonic fibroblasts, 2D culture; assay type: cell-based
[4] = test system: LECs; experiment: LEC proliferation, CyQUANT assay; assay type: cell-based; conditions: dose-dependent manner (FIG. 11)
Procedure: HUVECs (A) and LECs (B) were cultivated in endothelial cell growth medium. Cells were incubated with the indicated concentrations of X6632. Incubation with DMSO served as a solvent control. After cultivation for the indicated time periods, cells were stained with a CyQUANT™ Cell Proliferation Assay Kit (Thermo Fisher Scientific). The CyQUANT™ dye emits fluorescence after excitation at 485 nm when incorporated in double-stranded DNA, allowing DNA content to be used as a measure of cell numbers. Plates were incubated for 15 min at 37° C. to allow the CyQUANT™ dye to incorporate into DNA. Fluorescence was measured by excitation at 485 nm and detection of emission at 530 nm at 25 positions in each well (signal intensity) using a Tecan Infinite M200 reader.

[5] = test system: B16-F10 and Ret cells; experiment: 3D Matrigel assay; assay type: cell-based, murine; conditions: daily application in 3D Matrigel
Procedure: X8166 inhibits melanoma cell growth in 3D Matrigel. B16-F10 (A) or Ret (B) control or CRISPR/Cas9 Id1/Id3 cells were seeded in 3D Matrigel (10 mg/ml) and grown for six days before analysis. B16-F10 or Ret cells were treated daily with DMSO or X8166 (7.5 μM). The number of colonies at six positions of each well of a 48-well plate were counted in each z-level (5-10 z-levels were imaged per position).
Cells (2×10^3) were mixed with Matrigel to obtain 150 μl of a cell/Matrigel (10 mg/ml, #354262, Corning Inc.) solution, which was seeded into a well of a 48-well plate. The gel was allowed to solidify at 37° C. for 30 min and was subsequently overlaid with 500 μl complete growth medium. After six days of culture, images were captured using a Leica DMI6000 B microscope at six different x/y positions in every well, and a minimum of five horizontal layers (z levels) at each position, in order to get every cell in focus for image analysis. Image analysis was performed using Fiji software as follows: First, images were transformed into 8-bit files (pixel values from 0 (black) to 255 (white)). The scale was set to distance=0, known=0, pixel=1, and unit=pixel global. Outlines of each colony in focus in every image were detected using the integrated semi-automatic magic wand tool. Once outlines were matching the morphology of the colony were obtained, the colony was filled white (pixel value 255) using the fill function. Thresholding of pixel values (threshold=255) allowed black (background) and white (colonies) images of the filled colonies to be obtained. The “Analyze particles” function was applied to measure the area and perimeter of colonies with a minimum pixel size of 1500. An invasive index was calculated as follows: Invasive index=(perimeter)^2/area, resulting in a unitless measure of invasiveness.

[6] = test system: Id1; experiment: Id1 expression in HUVECs, Western blot; assay type: cell-based, Human
Procedure: (§2) Human umbilical vein endothelial cells (HUVECs) and lymphatic endothelial cells (LECs) were cultivated in EBM™-2 Endothelial Cell Growth Basal Medium supplemented with EGM™-2 MV Microvascular Endothelial Cell Growth Medium-2 SingleQuots™ Kit (both Lonza, catalogue numbers CC-3156 and CC4176, respectively), hereafter referred to as endothelial cell growth medium. HUVECs and LECs were cultivated in the presence of the indicated concentrations of X6632, or with DMSO as a solvent control. After 24 hours, cells were harvested. Lysates were western blotted and probed with antibodies against Id1 and Id3. Western blots probed with vinculin antibodies served as loading controls.
as §1
(§3) The effect of X6632 on Id1 and Id3 expression in cultivated proliferating human umbilical vein endothelial cells (HUVECs) was investigated. […] LDN-193189, an antagonist of BMP receptor isotypes ALK2 and ALK3, served as a positive control reference for inhibition of Id1 and Id3 expression.

[7] = test system: Id3; experiment: Id3 expression in HUVECs, Western blot; assay type: cell-based, Human
Procedure: as §2, §1, §3

[8] = test system: B16-F10 melanoma cells; experiment: Tumor growth and initiation in vivo, B16-F10; set-up: species or system mice
Excerpt: B16-F10 (A) or Ret (B) cells were co-injected with Matrigel into syngeneic mice. […] Numbers indicate the number of animals with a tumor in each group. Bar graphs show the mean tumor volume in each group at the day when the first animal had reached the legal tumor size limit. Kaplan-Meier curves show the percentage of tumor-free animals in percent as a measure for tumor initiation.
Cells were harvested using trypsin/EDTA and washed in PBS. The indicated numbers of living melanoma cells were subcutaneously injected into the flank of syngeneic mice in 100 μl PBS. For co-injection experiments, the indicated number of living cells was resuspended in 100 μl Matrigel HC (10 mg/ml, #354262, Corning Inc.), and subcutaneously injected into the flank. Tumor volume was calculated using the formula 4/3π (d1/2×d2/2×d3/2), where d1−d3 represents the diameter of the tumor in three dimensions. […] All animal experiments were approved by the local authorities, and performed according to the German legal requirements. Tumor initiating cell (TIC) frequency and p-values were calculated using ELDA software.
To investigate the anti-tumor properties of the selected Id1/Id3-inhibiting compounds, groups of experimental mice (8 per group) were injected subcutaneously with B16-F10 or Ret melanoma cells. […] Melanoma initiation and growth was assessed over a period of 90 days.

[9] = HUVECs, indicated concentrations, 24 hours (FIG. 10B)
[10] = proliferating HUVECs, 24 hours (FIG. 10A)

For `CCCCc1cc2c(O)cc(C3(CCCC)CCCCC3)cc2oc1=O` [X6632, 7-(1-Butylcyclohexyl)-5-hydroxy-3-butyl-2H-chromen-2-one], the “Inhibitory effect on Id1 protein expression” value [1] was “more potent”, the “Inhibitory effect on Id1 protein expression” value ([1]; listed as X 6632) was “strongest inhibitory activities” and the “Proliferation / cytotoxicity, melanoma cells” value [2] was “strongly inhibited”. The “Proliferation / cytotoxicity, non-transformed MEFs” value [3] was “strongly inhibited”, the “Proliferation of LECs” value [4] was “inhibited” and the “3D assays could not be performed with daily application, reason” value [5] was “cytotoxicity”. The “Expression of Id1 protein” value [6, 9] was “inhibits”, the Id1 protein expression [6, 10] was “completely abrogated” and the “Expression of Id3 protein” value [7, 9] was “inhibits”. The Id3 protein expression [7, 10] was “completely abrogated”, the “Melanoma growth and initiation” value ([8]; B16-F10 cells co-injected with Matrigel, syngeneic mice, daily i.p. first 14 days, compared to DMSO) was “significantly inhibit; also recorded: potent inhibitors” and the “Number of animals with tumors” value ([8]; B16-F10 cells, 8 mice per group, assessed over 90 days) was “three”. The “Tumor growth and initiation compared to CBD” value ([8]; B16-F10 experiment, daily i.p. first 14 days) was “significantly more effective”.
